Results from patent US10669284B2, “Fused thiazolopyrimidine derivatives as MNKS inhibitors” (LIFEARC, priority 2015, dated 2020).

What was measured:
SRC = SRC (Homo sapiens, UniProt P12931); assay: Kinase selectivity screen SRC; conditions: read-out: % inhibition of SRC
TBK1 = target: T1, TBK1 (Homo sapiens, UniProt Q9UHD2); assay: Kinase selectivity screen TBK1; conditions: read-out: % inhibition of TBK1
T1 sequence (Q9UHD2 1-729): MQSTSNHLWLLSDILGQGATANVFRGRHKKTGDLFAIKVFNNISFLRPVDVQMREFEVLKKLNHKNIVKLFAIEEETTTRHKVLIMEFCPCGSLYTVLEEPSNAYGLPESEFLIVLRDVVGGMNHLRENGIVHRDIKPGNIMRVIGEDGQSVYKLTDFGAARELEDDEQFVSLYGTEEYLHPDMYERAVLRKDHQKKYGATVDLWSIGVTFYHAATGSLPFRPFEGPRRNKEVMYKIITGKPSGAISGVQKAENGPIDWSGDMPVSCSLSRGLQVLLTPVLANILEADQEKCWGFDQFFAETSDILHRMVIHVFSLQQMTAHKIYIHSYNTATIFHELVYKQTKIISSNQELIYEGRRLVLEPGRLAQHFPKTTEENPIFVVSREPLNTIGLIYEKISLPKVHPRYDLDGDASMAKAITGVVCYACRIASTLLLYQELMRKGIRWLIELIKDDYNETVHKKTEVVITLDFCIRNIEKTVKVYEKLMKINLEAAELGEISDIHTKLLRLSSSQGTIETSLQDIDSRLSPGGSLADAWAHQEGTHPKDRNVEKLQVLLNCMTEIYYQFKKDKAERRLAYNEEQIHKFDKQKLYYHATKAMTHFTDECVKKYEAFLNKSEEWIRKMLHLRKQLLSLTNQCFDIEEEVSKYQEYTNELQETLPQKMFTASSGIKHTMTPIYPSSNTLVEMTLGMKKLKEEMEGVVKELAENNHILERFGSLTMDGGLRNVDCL

MAP2K1 = MAP2K1 (Homo sapiens, UniProt Q02750); assay: Kinase selectivity screen MAP2K1; conditions: read-out: % inhibition of MAP2K1
Sequence of MAP2K1 (Q02750 whole entry, species assumed): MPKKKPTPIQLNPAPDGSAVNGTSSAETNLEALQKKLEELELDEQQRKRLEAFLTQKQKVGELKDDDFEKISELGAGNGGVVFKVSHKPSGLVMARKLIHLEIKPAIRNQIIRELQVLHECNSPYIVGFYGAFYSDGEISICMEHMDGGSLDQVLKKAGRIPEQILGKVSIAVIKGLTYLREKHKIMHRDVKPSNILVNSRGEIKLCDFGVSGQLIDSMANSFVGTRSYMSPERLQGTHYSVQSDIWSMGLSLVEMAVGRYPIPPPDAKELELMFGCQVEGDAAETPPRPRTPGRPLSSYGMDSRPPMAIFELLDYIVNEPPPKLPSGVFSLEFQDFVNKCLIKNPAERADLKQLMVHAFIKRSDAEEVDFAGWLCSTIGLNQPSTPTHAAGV

FES = FES (Homo sapiens, UniProt P07332); assay: Kinase selectivity screen FES; conditions: read-out: % inhibition of FES
Sequence of FES (P07332 whole entry, species assumed): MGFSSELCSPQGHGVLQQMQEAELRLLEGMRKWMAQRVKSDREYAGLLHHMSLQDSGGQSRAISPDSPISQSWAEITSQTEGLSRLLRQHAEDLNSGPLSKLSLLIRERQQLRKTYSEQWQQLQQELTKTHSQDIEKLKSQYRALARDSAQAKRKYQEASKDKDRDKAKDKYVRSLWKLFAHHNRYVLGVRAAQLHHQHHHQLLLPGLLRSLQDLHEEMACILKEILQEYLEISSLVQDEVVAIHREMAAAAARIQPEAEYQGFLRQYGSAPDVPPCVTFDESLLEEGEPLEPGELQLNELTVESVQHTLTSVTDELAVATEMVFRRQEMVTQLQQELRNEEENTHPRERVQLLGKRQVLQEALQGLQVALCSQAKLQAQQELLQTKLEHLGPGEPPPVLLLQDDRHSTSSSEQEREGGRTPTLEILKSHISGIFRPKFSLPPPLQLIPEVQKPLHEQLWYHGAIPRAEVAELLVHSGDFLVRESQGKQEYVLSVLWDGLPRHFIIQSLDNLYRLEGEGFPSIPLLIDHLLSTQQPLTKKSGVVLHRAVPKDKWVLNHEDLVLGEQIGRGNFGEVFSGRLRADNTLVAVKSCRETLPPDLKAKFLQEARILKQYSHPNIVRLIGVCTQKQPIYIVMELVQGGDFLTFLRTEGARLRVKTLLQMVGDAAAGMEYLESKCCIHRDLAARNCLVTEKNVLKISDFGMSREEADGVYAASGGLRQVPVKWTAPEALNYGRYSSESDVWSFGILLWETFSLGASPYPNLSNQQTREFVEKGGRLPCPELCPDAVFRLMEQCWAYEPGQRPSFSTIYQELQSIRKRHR

Full-length human MNK2 = target: T2, Full-length human MNK2 (Homo sapiens, UniProt Q9HBH9, T379D); assay: MNK2 biochemical IC50 assay (Caliper Mobility Shift Assay)
T2 construct: GST (N); purchased Carna Biosciences 02-146; host or cells: baculovirus expression system
T2 sequence (Q9HBH9 whole entry T379D): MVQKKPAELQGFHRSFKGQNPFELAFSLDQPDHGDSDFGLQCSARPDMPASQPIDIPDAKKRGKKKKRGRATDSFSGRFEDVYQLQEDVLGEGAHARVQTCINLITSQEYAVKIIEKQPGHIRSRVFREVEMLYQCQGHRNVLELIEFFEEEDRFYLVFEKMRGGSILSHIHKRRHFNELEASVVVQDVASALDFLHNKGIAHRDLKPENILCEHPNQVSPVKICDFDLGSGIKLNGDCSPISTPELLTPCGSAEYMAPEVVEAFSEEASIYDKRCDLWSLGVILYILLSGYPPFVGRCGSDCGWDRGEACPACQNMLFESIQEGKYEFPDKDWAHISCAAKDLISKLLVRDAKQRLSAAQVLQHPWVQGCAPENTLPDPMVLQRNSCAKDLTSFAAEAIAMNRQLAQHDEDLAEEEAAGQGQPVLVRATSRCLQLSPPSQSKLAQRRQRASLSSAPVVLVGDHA

BTK = BTK (Homo sapiens, UniProt Q06187); assay: Kinase selectivity screen BTK; conditions: read-out: % inhibition of BTK
Sequence of BTK (Q06187 whole entry, species assumed): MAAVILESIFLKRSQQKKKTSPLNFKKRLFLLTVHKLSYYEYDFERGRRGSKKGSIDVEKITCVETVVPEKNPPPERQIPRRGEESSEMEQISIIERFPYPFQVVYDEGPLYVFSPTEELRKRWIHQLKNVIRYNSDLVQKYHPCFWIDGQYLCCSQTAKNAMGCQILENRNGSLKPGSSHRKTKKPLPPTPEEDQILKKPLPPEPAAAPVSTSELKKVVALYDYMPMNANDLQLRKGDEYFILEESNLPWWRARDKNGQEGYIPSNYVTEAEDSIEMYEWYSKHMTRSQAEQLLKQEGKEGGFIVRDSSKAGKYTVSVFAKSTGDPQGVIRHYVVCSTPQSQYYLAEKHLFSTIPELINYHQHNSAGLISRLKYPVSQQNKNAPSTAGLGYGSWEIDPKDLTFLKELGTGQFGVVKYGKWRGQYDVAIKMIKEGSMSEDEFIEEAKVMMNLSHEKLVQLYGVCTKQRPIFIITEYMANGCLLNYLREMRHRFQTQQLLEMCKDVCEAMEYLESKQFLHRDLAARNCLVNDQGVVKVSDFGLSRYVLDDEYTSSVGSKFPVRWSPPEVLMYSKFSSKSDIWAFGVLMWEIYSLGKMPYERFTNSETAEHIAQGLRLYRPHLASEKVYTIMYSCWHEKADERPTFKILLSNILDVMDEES

EPHB4 = target: T3, EPHB4 (Homo sapiens, UniProt P54760); assay: Kinase selectivity screen EPHB4; conditions: read-out: % inhibition of EPHB4
T3 sequence (P54760 16-987): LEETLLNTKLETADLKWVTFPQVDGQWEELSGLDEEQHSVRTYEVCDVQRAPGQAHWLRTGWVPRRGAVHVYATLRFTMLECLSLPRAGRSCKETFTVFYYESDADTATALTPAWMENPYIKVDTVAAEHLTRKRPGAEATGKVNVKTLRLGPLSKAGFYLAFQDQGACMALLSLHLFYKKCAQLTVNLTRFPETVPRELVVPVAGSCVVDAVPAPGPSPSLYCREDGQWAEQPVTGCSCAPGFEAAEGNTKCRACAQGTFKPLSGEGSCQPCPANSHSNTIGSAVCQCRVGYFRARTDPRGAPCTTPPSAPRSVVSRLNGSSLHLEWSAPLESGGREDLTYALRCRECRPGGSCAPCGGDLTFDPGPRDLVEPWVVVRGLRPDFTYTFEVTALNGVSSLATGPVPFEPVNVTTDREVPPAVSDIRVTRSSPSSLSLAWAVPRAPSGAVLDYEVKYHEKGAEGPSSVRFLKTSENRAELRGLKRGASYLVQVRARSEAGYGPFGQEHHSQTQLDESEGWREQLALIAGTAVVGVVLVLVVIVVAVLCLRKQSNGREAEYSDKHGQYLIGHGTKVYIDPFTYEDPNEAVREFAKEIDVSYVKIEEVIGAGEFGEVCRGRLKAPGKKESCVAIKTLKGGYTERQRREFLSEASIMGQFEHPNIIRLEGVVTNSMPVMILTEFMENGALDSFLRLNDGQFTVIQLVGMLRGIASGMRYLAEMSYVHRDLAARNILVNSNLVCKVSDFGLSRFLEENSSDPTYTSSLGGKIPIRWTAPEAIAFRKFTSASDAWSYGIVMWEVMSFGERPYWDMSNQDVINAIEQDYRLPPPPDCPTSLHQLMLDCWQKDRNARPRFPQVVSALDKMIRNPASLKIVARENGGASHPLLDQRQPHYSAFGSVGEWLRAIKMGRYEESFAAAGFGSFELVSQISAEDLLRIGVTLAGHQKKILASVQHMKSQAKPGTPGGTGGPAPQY

RPS6KA5 = RPS6KA5 (Homo sapiens, UniProt O75582); assay: Kinase selectivity screen RPS6KA5; conditions: read-out: % inhibition of RPS6KA5
Sequence of RPS6KA5 (O75582 whole entry, species assumed): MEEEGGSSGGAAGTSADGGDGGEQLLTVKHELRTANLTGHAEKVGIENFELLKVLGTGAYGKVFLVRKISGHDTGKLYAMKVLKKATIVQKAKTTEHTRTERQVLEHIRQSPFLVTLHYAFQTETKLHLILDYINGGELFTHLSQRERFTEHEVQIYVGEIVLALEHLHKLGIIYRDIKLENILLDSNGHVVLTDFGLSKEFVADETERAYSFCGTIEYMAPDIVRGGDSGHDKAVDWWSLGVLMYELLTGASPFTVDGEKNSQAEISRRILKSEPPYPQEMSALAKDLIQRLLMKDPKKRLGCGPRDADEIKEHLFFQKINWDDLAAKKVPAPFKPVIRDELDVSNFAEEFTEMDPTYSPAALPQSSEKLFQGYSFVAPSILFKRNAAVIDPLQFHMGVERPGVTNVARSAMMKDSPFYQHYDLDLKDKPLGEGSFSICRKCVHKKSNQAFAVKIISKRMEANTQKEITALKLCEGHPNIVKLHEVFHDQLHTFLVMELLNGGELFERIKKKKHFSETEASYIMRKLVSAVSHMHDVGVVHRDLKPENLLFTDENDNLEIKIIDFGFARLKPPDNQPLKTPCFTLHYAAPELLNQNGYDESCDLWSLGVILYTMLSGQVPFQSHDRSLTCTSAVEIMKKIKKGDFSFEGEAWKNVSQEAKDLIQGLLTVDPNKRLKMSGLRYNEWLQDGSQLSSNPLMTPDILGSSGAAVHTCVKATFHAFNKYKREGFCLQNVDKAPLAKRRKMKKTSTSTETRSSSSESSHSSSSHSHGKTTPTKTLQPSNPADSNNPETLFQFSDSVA

EEF2K = EEF2K (Homo sapiens, UniProt O00418); assay: Kinase selectivity screen EEF2K; conditions: read-out: % inhibition of EEF2K
Sequence of EEF2K (O00418 whole entry): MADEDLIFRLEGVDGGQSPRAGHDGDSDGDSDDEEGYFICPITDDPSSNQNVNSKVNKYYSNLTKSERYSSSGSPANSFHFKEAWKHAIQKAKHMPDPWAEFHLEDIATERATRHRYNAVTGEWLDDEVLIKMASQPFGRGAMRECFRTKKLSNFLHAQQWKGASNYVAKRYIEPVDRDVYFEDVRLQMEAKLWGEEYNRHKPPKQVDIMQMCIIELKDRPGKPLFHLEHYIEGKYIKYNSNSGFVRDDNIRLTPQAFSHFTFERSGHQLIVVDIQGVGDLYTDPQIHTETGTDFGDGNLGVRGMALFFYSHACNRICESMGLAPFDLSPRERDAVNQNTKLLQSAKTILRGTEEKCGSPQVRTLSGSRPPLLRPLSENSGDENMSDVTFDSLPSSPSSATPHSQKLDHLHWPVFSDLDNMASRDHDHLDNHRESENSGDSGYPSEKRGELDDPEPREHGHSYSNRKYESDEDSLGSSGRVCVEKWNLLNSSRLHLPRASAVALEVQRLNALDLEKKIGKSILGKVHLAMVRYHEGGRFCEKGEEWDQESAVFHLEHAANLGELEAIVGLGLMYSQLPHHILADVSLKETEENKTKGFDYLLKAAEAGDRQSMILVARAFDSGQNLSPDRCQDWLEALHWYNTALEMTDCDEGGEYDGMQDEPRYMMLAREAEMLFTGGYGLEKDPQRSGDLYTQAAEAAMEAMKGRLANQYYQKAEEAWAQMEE

Sequence of SRC (P12931 whole entry): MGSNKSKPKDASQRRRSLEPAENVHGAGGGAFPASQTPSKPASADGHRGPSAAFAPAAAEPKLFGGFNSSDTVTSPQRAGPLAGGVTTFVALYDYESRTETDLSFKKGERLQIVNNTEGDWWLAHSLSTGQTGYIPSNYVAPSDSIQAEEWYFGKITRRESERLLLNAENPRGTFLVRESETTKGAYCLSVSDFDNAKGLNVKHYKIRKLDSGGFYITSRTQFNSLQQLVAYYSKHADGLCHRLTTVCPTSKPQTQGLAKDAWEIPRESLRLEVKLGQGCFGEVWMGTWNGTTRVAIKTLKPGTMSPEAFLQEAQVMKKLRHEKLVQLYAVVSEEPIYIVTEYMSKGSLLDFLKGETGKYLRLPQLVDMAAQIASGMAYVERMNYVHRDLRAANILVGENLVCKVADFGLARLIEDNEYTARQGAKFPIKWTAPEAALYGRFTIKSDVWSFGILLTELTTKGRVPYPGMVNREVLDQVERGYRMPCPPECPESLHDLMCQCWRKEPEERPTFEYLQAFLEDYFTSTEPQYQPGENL

SMILES | inhibition at 1 µM (SRC) [%] | inhibition at 1 µM (TBK1) [%] | inhibition at 1 µM (MAP2K1) [%] | inhibition at 1 µM (FES) [%] | IC50 (Full-length human MNK2) [nM] | inhibition at 1 µM (BTK) [%] | inhibition at 1 µM (EPHB4) [%] | inhibition at 1 µM (RPS6KA5) [%] | inhibition at 1 µM (EEF2K) [%]
CC(C)Oc1cc(F)ccc1Nc1ncnc2sc(C(=O)NCC3CCNCC3)nc12 [Example 10, 7-(4-fluoro-2-isopropoxy-anilino)-N-(4-piperidylmethyl)thiazolo[5,4-d]pyrimidine-2-carboxamide] | 5 | 14 | 0 | 13 | 50.1 | 6 | 4 | 0 | 4
O=C(NCC1CCNCC1)c1nc2c(N3CCc4cc(F)ccc43)ncnc2s1 [Example 58, 7-(5-fluoroindolin-1-yl)-N-(4-piperidylmethyl)thiazolo[5,4-d]pyrimidine-2-carboxamide] | 0 | 17 | 7 | 16 | 3.98 | 9 | 0 | 0 | 0
CN(C)CCCNC(=O)c1nc2c(N3CCc4cc(F)ccc43)ncnc2s1 [Example 64, N-[3-(dimethylamino)propyl]-7-(5-fluoroindolin-1-yl)thiazolo[5,4-d]pyrimidine-2-carboxamide] | 0 | 7 | 5 | 1 | 2 | 0 | 8 | 24 | 0
